Measured values: patent publication US11912647B2, “Diversity-oriented synthesis of N,N,O-trisubstituted hydroxylamines from alcohols and amines by N—O bond formation” (University of Georgia Research Foundation, Inc., priority 2020, dated 2024)

Assays:
[1] = test system: human hepatocarcinoma cell line HepG2; conditions: cited from earlier work

Compound	IC50 [1] [ng/mL]	melting point [°C]	activity toward HepG2 relative to kalkitoxin ([1]; hydroxalog versus parent natural product)
kalkitoxin	3.2	–	–
CC(C)(C)ON1CCN(c2cccc(Cl)c2Cl)CC1	–	92 to 93	–
CC(C)(C)ON1CCN(c2ccc(C(F)(F)F)cc2)CC1	–	77.6 to 78.8	–
10-aza-9-oxakalkitoxin	2.4	–	complete retention of activity
